Results on one compound are retold here after patent US20260102502A1, “C[…] COMPOSITIONS FOR TARGETED […]” (priority 2022, published 2026).

The solubility is the dissolved amount per volume that the medium holds. High values mean a readily soluble substance, low ones a poorly soluble substance.

Some results are limits rather than exact numbers.

The nature of this data set: water solubility of free drug and dendrimer-drug conjugates.

Take `CCCCCCC(C)(C)c1cc(OC)c([C@@H]2C=C(CO)[C@@H]3C[C@H]2C3(C)C)c(OC)c1` [Hu308]: the “Water Solubility Free drug*” value (free, unconjugated drug of GD-Hu308 (Table 4)) was <100 µg/mL. Besides, where the note is “water”, the solubility was < 100 µg/mL.
